Test results taken from US11702430B2, “Aza-benzothiophene compounds as STING agonists” (Merck Sharp & Dohme LLC, priority 2018, dated 2023).
pEC50: −log10 of the molar value.

Key:
[1] = tested on: IFN-β secretion in THP1 cells; experiment: IFN-β secretion in THP1 cell culture (5 h); assay type: cell-based; settings: Homo sapiens, THP-1, 5 h, 30 μM compound, cGAMP at 30 μM set at 100%, read-out: % Effect at 30 μM relative to 2′3′-cGAMP
Experimental: The ability of compounds to stimulate the secretion of interferon-beta from THP1 cells was measured using a human IFN-β AlphaLISA kit (Perkin Elmer, Cat. No. AL265F). The basic protocol is as follows:
A Labcyte Echo 550 acoustic dispenser was used to transfer 120 nL of compound dissolved in DMSO into the wells of an empty, sterile 384-well microplate, (Corning, Cat. No. 3712). THP1 cells (American Type Culture Collection, Cat. No. TIB202) previously frozen in Recovery Medium (Life Technologies, Cat. No. 12648-010) were thawed and immediately diluted 10-fold into 37° C. assay medium (RPMI 1640+L-Glutamine & phenol red, Life Technologies, Cat. No. 11875-085; 0.5% heat inactivated fetal bovine serum, Sigma Aldrich, Cat. No. F4135; 1 mM Sodium Pyruvate, Life Technologies, Cat. No. 11360-070; lx non-essential amino acids; Life Technologies, Cat. No. 11140-050). The cell viability and count was ascertained using a Beckman Coulter V-Cell XR cell counter. The cells suspension was centrifuged at 200×g for 5 min at RT. Cells were resuspended to a density of 0.8×10^6/mL in 37° C. assay medium. Subsequent liquid transfers were performed using either a Matrix electronic multichannel pipette or an Agilent Bravo Automated Liquid Handling Platform.
The assay was started by dispensing 404, of the previously prepared cell suspension into the wells of the plate containing compounds. After 5 h incubation at 37° C., 5% CO2 in a humidified atmosphere, the plate of cells and compounds was centrifuged at 200×g for 5 min at RT. From each well, 54, of supernatant was transferred into corresponding wells of a white 384-well plate (Perkin Elmer, Cat. No. 6005620). To these supernatant-containing wells was added 10 μL of 5× Anti-Analyte Acceptor beads (50 μg/mL of AlphaLISA HiBlock Buffer) and incubated for 30 min at RT while shaking on an orbital plate shaker. To each well was added 104, of 5× Biotinylated Antibody Anti-analyte (5 nM in AlphaLISA HiBlock Buffer) and incubated on an orbital plate shaker for 60 min at RT or overnight at 4° C. To each well was added 254, of 2× SA-Donor beads (80 μg/mL in AlphaLISA HiBlock Buffer) and incubated for 30-45 min at RT in the dark while shaking on an orbital plate shaker. The plate was then read on a Perkin Elmer Envision (λex=680 nm, λem=[…]). The percent effect of the AlphaLISA signal at each compound concentration was calculated based on 30 uM cGAMP positive controls and 0.3% DMSO negative controls. The plot of percent effect versus the log of compound concentration was fit with a 4-parameter concentration response equation to calculate EC50 values. The test compounds were tested at concentrations 30000, 10000, 3333, 1111, 370.4, 123.4, 41.2, 13.7, 4.6, and 1.5 nM with 0.3% residual DMSO. The control compound, cGAMP was tested at concentrations 100000, 33333, 11111, 3704, 1235, 412, 137, 46, and 15 nM with 0.3% residual DMSO.

[2] = biological target: T1, full-length HAQ STING (Homo sapiens, UniProt Q86WV6, G230A/H232R/R293Q/R71H); experiment: 3H-cGAMP filtration binding assay (HAQ STING); settings: for pEC50: competition with tritiated cGAMP ligand, HAQ STING membrane
T1 construct: made in house; host or cells: Trichoplusia ni (Hi-Five) insect cells, baculovirus; crude membrane preparation
Source text: The ability of compounds to bind STING is quantified by the ability to compete with tritiated cGAMP ligand for human STING receptor membrane using a radioactive filter-binding assay. The binding assay employs STING receptor obtained from Hi-Five cell membranes overexpressing full-length HAQ STING prepared in-house and tritiated cGAMP ligand also purified in-house.
The ability of compounds to bind STING is quantified by their ability to compete with tritiated cGAMP ligand for human STING receptor membrane using a radioactive filter-binding assay. The binding assay employs STING receptor obtained from Trichoplusia ni cell membranes (T. ni; Expression Systems, cat #94-002F, www.expressionsystems.com) overexpressing full-length HAQ STING and tritiated cGAMP ligand.
The basic HAQ STING filtration assay protocol is as follows:
The compounds were serially titrated by the Hamilton STARPlus CORE in a 96-well plate (Greiner, #651201) using a 1:3 ten-point dose response format. After compound preparation, a 2.2 ug/ml working concentration of STING membrane (SEQ. ID. No. 1) was prepared by diluting concentrated membrane into assay buffer (lx PBS; Invitrogen #SH30028.02) and douncing 7× using a manual tissue homogenizer (Wheaton, #357546). 148 uL of prepared membrane was then manually added to each well of a 96-well deep-well polypropylene plate (Fisher Scientific, #12-566-121). Following membrane addition, 2 uL of either titrated test compound, DMSO control (Sigma #276855), or cold cGAMP control was added to the appropriate wells using a BIOMEK FX. Compound and membrane then preincubated for 60 min at RT to allow compound binding to equilibrate. Following equilibration, 8 nM of [^3H] c-GAMP ligand was prepared by diluting into assay buffer, and 50 uL of this working stock was then manually added to each well of the assay plate. Plates were then incubated at RT for 60 min, and the contents of each assay plate were then filtered through a 96-well GF/B filter plate (PerkinElmer, #6005250) using a TOMTEC MACH III Cell Harvester equipped with 20 mM HEPES buffer (Fisher Scientific, #BP299500). The filter plates were then dried at 55° C. for 30 min using a pressurized oven before 30 uL of ULTIMA GOLD F scintillate was added to each well. Tritium levels for each reaction well were then measured using a PerkinElmer TopCount plate reader.
After normalization to controls, the percent activity for each compound concentration was calculated by measuring the amount of remaining radioactivity. The plot of percent activity versus the log of compound concentration was fit with a 4-parameter dose response equation to calculate EC50 values.

T1 sequence (Q86WV6 with tags, fused parts or gaps R71H/G230A/H232R/R293Q): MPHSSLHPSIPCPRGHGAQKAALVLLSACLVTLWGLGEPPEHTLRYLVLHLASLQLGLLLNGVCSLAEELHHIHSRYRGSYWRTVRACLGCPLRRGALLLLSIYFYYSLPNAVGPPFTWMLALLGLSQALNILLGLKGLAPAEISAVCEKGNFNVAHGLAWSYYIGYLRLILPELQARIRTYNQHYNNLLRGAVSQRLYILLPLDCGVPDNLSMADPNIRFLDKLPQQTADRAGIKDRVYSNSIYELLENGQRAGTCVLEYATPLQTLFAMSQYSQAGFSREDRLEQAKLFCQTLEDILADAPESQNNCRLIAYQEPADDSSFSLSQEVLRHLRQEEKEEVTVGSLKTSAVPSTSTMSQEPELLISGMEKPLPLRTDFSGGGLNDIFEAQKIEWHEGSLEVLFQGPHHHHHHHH

Compound	pEC50 [2]	percent reduction in binding of tritiated cGAMP at top concentration ([2]; at 20,000 nM (20 uM) compound, HAQ STING)	activation at 30 µM [1] [%]
COc1cc2sc(C(=O)CC(C)C(=O)O)cc2nc1OC (single isomer, unassigned) [Example 7, (R or S)-4-(5,6-Dimethoxythieno[3,2-b]pyridin-2-yl)-2-methyl-4-oxobutanoic acid]	5.06		55
CCC(CC(=O)c1cc2nc(OC)c(OC)cc2s1)C(=O)O (single isomer, unassigned) [Example 11, (R or S)-4-(5,6-Dimethoxythieno[3,2-b]pyridin-2-yl)-2-ethyl-4-oxobutanoic acid]	4.76		
CCCC(CC(=O)c1cc2nc(OC)c(OC)cc2s1)C(=O)O (single isomer, unassigned) [Example 13, (R or S)-2-(2-(5,6-Dimethoxythieno[3,2-b]pyridin-2-yl)-2-oxoethyl) pentanoic acid]		7% @ 20,000	
COc1nc2cc(C(=O)CC(C)C(=O)O)sc2nc1OC (single isomer, unassigned) [Example 18, (R or S)-4-(2,3-Dimethoxythieno[2,3-b]pyrazin-6-yl)-2-methyl-4-oxobutanoic Acid]	5.35		77
COc1cc2nc(C(=O)CCC(=O)O)sc2cc1OC [Example 1, 4-(5,6-Dimethoxybenzo[d]thiazol-2-yl)-4-oxobutanoic Acid]	4.88		56
COc1cc2sc(C(=O)C[C@H](C)C(=O)O)nc2cc1Br [Example 3, (S)-4-(5-Bromo-6-methoxybenzo[d]thiazol-2-yl)-2-methyl-4-oxobutanoic Acid]	4.97		11
COc1cc2sc(C(=O)CC(C)C(=O)O)nc2c(F)c1OC (stereo not drawn) [Example 4, 4-(4-Fluoro-5,6-dimethoxybenzo[d]thiazol-2-yl)-2-methyl-4-oxobutanoic Acid]	5.17		19
COc1cc2cc(C(=O)CCC(=O)O)sc2nc1OC [Example 5, 4-(5,6-Dimethoxythieno[2,3-b]pyridin-2-yl)-4-oxobutanoic Acid]	5.26		146
COc1nc2cc(C(=O)CCC(=O)O)sc2nc1OC [Example 16, 4-(2,3-Dimethoxythieno[2,3-b]pyrazin-6-yl)-4-oxobutanoic Acid]	5.02		108
COc1cc2sc(C(=O)C[C@H](C)C(=O)O)nc2nc1OC [Example 19, (S)-4-(5,6-Dimethoxythiazolo[4,5-b]pyridin-2-yl)-2-methyl-4-oxobutanoic Acid]	5.00		14

Further compounds by rising pEC50 [2], results first:

pEC50 [2]	percent reduction in binding of tritiated cGAMP at top concentration ([2]; at 20,000 nM (20 uM) compound, HAQ STING)	Compound	activation at 30 µM [1] [%]
5.48		COc1cc2nc(C(=O)CC(C)C(=O)O)sc2cc1OC (single isomer, unassigned) [Example 2, 4-(5,6-Dimethoxy-1,3-benzothiazol-2-yl)-2-methyl-4-oxobutanoic Acid]	94
5.57		CCC(CC(=O)c1cc2nc(OC)c(OC)nc2s1)C(=O)O (single isomer, unassigned) [Example 17, (R or S)-4-(2,3-Dimethoxythieno[2,3-b]pyrazin-6-yl)-2-ethyl-4-oxobutanoic Acid]	116
5.61		COc1nc2cc(C(=O)CCC(=O)O)sc2cc1Br [Example 15, 4-(6-Bromo-5-methoxythieno[3,2-b]pyridin-2-yl)-4-oxobutanoic Acid]	142
5.61		COc1cc2sc(C(=O)CCC(=O)O)cc2nc1OC [Example 6]	107
5.76		CCC(CC(=O)c1cc2nc(OC)c(OC)cc2s1)C(=O)O (single isomer, unassigned) [Example 12, (R or S)-4-(5,6-Dimethoxythieno[3,2-b]pyridin-2-yl)-2-ethyl-4-oxobutanoic acid]	
5.81		COc1cc2sc(C(=O)CC(C)C(=O)O)cc2nc1OC (single isomer, unassigned) [Example 8, (R or S)-4-(5,6-Dimethoxythieno[3,2-b]pyridin-2-yl)-2-methyl-4-oxobutanoic acid]	
5.86		CCCC(CC(=O)c1cc2nc(OC)c(OC)cc2s1)C(=O)O (single isomer, unassigned) [Example 14, (R or S)-2-(2-(5,6-Dimethoxythieno[3,2-b]pyridin-2-yl)-2-oxoethyl) pentanoic acid]	
5.94		COc1cc2sc(C(=O)[C@H]3C[C@H]3C(=O)O)cc2nc1OC (single isomer, unassigned) [Example 9, Cis-2-(5,6-dimethoxythieno[3,2-b]pyridine-2-carbonyl)cyclopropane-1-carboxylic Acid]	100
6.20		COc1cc2sc(C(=O)C[C@H](C)C(=O)O)cc2nc1Cl [Example 10, (S)-4-(5-Chloro-6-methoxythieno[3,2-b]pyridin-2-yl)-2-methyl-4-oxobutanoic Acid]	70
